# Measured values taken from patent US20230174460A1, “AFMT ANALOGS AND THEIR USE IN METHODS OF TREATING PARKINSON'S DISEASE” (President and Fellowes of Harvard College, priority 2020, published 2023).
# Tested on: E. faecalis MMH594 whole cells (TyrDC)
# Experiment: Inhibition of L-dopa decarboxylation in E. faecalis whole cells
# Format: cell-based, Enterococcus faecalis MMH594
# Conditions: for EC50: E. faecalis whole cells / cultures
# Description: Thus, a library of commercially available tyrosine and phenylalanine derivatives were evaluated for decarboxylation by Enterococcus faecalis MMH594 whole cells; decarboxylation efficiency of a given tyrosine analog was used to identify favorable aromatic fragments, with high conversion indicating a favorable arene scaffold. […] To quickly assess whether the trend in native decarboxylation activity can be translated to inhibitory activity, we evaluated benzyl aminooxy compounds with similar aromatic elements as inhibitors for L-dopa decarboxylation in E. faecalis MMH594 whole cells (10 μM inhibitor); high L-dopa recovery indicated high inhibitory efficiency. […] In addition, these compounds are either commercially available or can be accessed in a two-step synthetic sequence (European Journal of Medicinal Chemistry 2016, 108, 564-576). As shown, inhibitors without a para-hydroxyphenyl motif are not effective towards L-dopa decarboxylation in whole cells (FIG. 3B). Aminooxy compounds with this structural motif can inhibit L-dopa decarboxylation in E. faecalis cultures at low concentrations.
# AFMT analogs were evaluated for their inhibitory effects towards L-dopa decarboxylation using the same protocol as described above. 500 μM L-dopa was incubated anaerobically at 37° C. with E. faecalis MMH594 in the presence of 100 μM inhibitor for 18-24 h. The level of remaining L-dopa was measured by MS/MS and then normalized to the level of L-dopa from a mutant control. […] Since (S)-AFMT is the active AFMT enantiomer, the stereochemical assignments in FIG. 5 assume that the enantiomer with the higher inhibitory activity carries the […] configuration. Chiral configuration will be unambiguously determined via crystallography in the future.
SMILES,EC50 [nM],other results
"N[C@@](CF)(Cc1ccc(O)cc1)C(=O)O [AFMT, α-fluoromethyltyrosine]",,EC50 (Enterococcus faecalis): 1400 nM
C[C@@](Cc1ccc(O)c(O)c1)(NN)C(=O)O [carbidopa],,limiting L-dopa decarboxylation by E. faecalis (applicant's original study): ineffective
NOCc1ccc(O)cc1 [4-hydroxybenzyl aminooxy],1500,
NOCc1ccc(O)c(F)c1 [3-fluoro-4-hydroxybenzyl aminooxy],2200,
